The text below walks through data of ChEMBL document CHEMBL2429858, “Five new degraded diterpenoids from Trigonostemon xyphophylloides” (Bioorg Med Chem Lett, 2013).

Test [1] in a line: Cytotoxicity against human SPCA1 cells after 48 hrs by MTT assay. The test is classed as functional, cell-based. The conditions noted are these: SPCA1, 48 h.
For another test, the system named is SGC-7901. Description: Cytotoxicity against human SGC7901 cells after 48 hrs by MTT assay. The test is classed as functional, cell-based. Particulars: SGC-7901, 48 h.

pIC50: −log10 of the molar value.

For `CO[C@@]12[C@H](COC(N)=O)C3=C(C(=O)C(C)=C(N)C3=O)N1C[C@@H]1N[C@@H]12` [MITOMYCIN], the results for the negative logarithm of the IC50 (pIC50) (in test [1]; in the test with SGC-7901) were 5.77 and 5.69, respectively.
Consider `COc1c(O)c(C)cc2c1C1=CC(=O)C(C)(C)C1=CC2=O` [TRIGOXYPHIN N], for which the pIC50 in test [1] was 5.39; in the test with SGC-7901, 5.30.
